The record followed here is publication PMC8878501 (Marine Drugs, 2022).

Positions of bridges follow the written chain, without caps; N, C: chain ends. Residues, ends and D or L forms follow the SMILES beside them. A value given as a limit tells only on which side of the number the result lay.

The target of one assay is rα7 nAChR (Rattus norvegicus, UniProt Q05941). It counts as cell-based. Conditions: at 20 μM.
The target of a further assay is rα6/α3β2β3 nAChR (Rattus norvegicus, UniProt P04757+P12390+P12391+P43143). The assay can be described thus: cell-based.
Another assay addresses rα4β2 nAChR (Rattus norvegicus, UniProt P09483+P12390). Put plainly: cell-based. It counts as cell-based.
In a further assay the target is rα3β2 nAChR (Rattus norvegicus, UniProt P04757+P12390). Put plainly: cell-based. Conditions: 20–25 °C.
The target in a further assay is rα3β4 nAChR (Rattus norvegicus, UniProt P04757+P12392). The assay can be described thus: cell-based. In kind it is cell-based.
The target in the next assay is rα6/α3β4 nAChR (Rattus norvegicus, UniProt P04757+P12392+P43143). Put plainly: cell-based. Conditions: 20–25 °C.
The target in another assay is hα9α10 nAChR (Homo sapiens, UniProt Q9GZZ6+Q9UGM1). The assay can be described thus: cell-based.
Another assay has as its target rα9α10 nAChR (Rattus norvegicus, UniProt P43144+Q9JLB5). The assay can be described thus: cell-based. It counts as cell-based.

The term IC50 denotes the concentration that gives 50% inhibition. A high value points to a need for much substance.

Sequence of hα9α10 nAChR (Q9UGM1 26-479 limits assumed): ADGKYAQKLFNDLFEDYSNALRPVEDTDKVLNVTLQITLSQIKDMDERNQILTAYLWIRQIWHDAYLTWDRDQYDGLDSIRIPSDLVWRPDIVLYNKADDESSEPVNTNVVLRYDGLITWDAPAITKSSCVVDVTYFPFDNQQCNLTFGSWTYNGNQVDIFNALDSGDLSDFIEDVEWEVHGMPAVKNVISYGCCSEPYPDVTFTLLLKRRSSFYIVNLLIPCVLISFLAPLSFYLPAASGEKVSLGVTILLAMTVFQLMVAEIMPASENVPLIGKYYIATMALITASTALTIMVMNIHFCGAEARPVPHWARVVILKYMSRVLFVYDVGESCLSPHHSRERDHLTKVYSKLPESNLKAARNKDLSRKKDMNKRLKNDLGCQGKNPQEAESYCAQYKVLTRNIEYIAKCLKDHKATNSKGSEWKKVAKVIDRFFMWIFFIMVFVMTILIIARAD
Sequence of hα9α10 nAChR (Q9GZZ6 25-450 limits assumed): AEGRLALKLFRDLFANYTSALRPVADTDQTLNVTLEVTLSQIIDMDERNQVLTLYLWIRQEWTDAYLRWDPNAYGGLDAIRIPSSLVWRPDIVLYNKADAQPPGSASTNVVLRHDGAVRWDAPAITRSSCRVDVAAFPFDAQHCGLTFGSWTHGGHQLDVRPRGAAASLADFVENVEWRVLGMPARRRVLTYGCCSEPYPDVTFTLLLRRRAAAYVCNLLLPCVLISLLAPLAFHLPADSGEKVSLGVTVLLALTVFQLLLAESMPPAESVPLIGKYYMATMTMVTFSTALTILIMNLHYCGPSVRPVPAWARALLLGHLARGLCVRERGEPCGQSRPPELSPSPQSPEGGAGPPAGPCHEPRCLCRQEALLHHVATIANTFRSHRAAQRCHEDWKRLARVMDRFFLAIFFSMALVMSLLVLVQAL
Sequence of rα4β2 nAChR (P09483 31-630 limits assumed): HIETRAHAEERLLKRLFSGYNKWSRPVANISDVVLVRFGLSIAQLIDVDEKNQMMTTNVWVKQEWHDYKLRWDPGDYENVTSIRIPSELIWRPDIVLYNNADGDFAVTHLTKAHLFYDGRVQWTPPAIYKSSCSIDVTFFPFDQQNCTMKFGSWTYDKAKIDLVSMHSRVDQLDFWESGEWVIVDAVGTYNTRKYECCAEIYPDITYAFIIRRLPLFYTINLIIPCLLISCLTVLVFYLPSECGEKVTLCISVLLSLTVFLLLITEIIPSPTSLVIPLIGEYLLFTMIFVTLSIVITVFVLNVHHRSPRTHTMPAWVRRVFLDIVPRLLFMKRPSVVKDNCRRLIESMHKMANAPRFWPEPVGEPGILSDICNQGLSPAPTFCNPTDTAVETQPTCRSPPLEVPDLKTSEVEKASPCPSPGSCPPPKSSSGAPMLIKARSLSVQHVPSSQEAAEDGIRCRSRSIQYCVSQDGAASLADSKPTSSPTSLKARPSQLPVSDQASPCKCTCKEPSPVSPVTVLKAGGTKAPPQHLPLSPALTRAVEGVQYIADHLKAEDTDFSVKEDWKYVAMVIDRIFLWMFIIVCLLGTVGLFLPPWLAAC
Sequence of rα4β2 nAChR (P12390 25-500 limits assumed): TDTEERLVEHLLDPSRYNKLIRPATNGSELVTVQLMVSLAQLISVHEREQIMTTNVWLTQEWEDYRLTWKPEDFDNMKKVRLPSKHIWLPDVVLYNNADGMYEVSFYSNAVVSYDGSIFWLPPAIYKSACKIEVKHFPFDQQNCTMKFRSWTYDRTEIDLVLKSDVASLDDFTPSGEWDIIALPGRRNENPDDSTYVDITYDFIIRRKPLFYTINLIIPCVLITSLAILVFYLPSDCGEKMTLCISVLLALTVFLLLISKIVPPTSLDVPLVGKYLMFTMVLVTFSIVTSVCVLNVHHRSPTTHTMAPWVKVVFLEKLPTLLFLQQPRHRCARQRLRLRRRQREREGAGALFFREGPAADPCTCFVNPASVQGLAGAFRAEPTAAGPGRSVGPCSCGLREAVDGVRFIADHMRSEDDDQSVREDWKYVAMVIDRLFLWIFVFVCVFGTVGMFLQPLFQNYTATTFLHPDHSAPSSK
Sequence of rα6/α3β2β3 nAChR (P04757 whole entry, looked up): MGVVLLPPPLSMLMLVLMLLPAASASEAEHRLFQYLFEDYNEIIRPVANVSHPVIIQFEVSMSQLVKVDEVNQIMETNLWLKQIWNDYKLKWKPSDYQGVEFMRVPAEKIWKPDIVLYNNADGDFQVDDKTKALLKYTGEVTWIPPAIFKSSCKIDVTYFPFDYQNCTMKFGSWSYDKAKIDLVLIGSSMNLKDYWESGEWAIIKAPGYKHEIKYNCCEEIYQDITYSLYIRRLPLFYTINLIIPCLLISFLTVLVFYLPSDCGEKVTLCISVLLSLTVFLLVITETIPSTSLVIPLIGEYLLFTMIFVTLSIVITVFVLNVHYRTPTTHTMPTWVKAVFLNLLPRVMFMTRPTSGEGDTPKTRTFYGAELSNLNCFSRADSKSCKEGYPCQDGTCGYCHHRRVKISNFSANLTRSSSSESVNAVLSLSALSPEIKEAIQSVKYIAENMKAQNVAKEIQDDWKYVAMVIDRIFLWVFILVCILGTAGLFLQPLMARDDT
Sequence of rα6/α3β2β3 nAChR (P12390 whole entry, looked up): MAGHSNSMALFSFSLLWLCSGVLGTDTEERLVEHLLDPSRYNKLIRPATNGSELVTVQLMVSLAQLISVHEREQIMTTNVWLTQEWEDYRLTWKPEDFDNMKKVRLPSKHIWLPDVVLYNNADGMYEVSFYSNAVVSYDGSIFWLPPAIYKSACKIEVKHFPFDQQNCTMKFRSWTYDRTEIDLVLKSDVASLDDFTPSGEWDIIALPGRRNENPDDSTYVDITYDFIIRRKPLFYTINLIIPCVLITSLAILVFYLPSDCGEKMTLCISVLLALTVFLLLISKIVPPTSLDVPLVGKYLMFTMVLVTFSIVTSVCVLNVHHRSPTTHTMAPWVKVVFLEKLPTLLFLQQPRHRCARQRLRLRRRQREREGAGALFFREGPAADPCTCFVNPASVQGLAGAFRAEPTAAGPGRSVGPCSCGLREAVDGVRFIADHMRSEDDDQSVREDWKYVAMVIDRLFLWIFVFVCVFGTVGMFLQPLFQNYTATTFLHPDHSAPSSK
Sequence of rα6/α3β2β3 nAChR (P12391 whole entry, looked up): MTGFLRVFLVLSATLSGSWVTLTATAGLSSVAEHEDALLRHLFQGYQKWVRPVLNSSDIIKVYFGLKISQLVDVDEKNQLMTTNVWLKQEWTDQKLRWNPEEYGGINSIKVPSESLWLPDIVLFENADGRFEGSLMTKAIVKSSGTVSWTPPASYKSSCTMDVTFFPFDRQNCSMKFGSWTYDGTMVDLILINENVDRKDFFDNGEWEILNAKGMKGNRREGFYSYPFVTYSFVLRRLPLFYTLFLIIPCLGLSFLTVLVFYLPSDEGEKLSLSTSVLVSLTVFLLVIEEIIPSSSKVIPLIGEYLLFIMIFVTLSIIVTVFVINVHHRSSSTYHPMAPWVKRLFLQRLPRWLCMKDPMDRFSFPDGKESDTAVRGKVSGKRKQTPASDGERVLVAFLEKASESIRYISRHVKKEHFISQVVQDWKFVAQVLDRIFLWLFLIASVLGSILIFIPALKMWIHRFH
Sequence of rα6/α3β2β3 nAChR (P43143 whole entry, looked up): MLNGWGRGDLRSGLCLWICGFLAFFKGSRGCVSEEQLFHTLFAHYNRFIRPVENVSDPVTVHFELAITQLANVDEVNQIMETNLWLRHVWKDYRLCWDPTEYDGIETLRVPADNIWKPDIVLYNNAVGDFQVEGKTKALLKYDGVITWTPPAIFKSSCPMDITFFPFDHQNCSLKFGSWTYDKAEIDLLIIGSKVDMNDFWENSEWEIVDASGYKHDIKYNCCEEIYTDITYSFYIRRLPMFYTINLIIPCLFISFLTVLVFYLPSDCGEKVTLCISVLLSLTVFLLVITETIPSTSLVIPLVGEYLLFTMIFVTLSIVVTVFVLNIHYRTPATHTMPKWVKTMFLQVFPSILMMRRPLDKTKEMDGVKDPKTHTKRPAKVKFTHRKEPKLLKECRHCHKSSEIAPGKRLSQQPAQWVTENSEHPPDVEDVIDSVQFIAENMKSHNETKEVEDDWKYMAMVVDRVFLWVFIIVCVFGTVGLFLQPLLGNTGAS
Sequence of rα3β4 nAChR (P04757 26-499 limits assumed): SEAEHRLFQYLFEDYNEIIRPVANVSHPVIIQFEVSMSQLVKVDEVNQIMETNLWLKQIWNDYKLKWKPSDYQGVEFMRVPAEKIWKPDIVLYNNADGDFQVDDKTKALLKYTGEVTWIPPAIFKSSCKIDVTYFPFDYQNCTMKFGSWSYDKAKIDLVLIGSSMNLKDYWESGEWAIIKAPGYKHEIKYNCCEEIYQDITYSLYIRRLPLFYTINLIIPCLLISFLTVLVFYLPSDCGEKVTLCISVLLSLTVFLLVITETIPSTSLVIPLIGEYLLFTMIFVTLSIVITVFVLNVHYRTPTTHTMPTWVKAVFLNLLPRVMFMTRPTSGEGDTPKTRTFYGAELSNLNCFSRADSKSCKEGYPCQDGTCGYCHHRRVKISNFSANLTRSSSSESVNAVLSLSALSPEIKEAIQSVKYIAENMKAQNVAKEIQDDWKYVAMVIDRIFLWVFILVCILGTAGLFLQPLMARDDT
Sequence of rα3β4 nAChR (P12392 21-495 limits assumed): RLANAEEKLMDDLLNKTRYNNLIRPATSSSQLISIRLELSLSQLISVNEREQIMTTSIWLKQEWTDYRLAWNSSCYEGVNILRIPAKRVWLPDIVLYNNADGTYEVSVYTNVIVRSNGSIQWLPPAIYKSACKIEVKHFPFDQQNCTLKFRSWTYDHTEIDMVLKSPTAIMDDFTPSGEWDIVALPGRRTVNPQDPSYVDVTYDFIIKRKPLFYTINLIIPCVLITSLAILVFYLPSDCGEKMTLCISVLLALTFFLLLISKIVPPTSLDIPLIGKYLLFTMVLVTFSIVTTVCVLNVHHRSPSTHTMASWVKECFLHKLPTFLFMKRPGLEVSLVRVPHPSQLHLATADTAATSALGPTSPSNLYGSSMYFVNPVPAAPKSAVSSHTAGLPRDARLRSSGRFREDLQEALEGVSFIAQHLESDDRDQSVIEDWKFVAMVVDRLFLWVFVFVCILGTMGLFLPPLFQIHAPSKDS
Sequence of rα3β2 nAChR (P04757 26-499 limits assumed): as the sequence (P04757 26-499 limits assumed) above
Sequence of rα3β2 nAChR (P12390 25-500 limits assumed): as the sequence (P12390 25-500 limits assumed) above

For `CC[C@H](C)[C@@H]1NC(=O)[C@H](CCC(=O)O)NC(=O)[C@@H]2CCCN2C(=O)[C@H](Cc2c[nH]cn2)NC(=O)[C@H]([C@@H](C)O)NC(=O)[C@H](CCC(N)=O)NC(=O)[C@H](C)NC(=O)[C@@H]2CSSC[C@H](NC(=O)[C@H](CCC(=O)O)NC(=O)[C@@H](N)CC(=O)O)C(=O)N[C@@H](CSSC[C@@H](C(N)=O)NC1=O)C(=O)N[C@@H](CO)C(=O)N[C@@H](CC(N)=O)C(=O)N1CCC[C@H]1C(=O)N[C@@H](CO)C(=O)N2` [QuIA] (H-DECCSNPSCAQTHPEIC-NH2; disulfide 3-9, 4-17), the “blocking of ACh-induced current” value is listed as “less than 50%” at rα7 nAChR; “^a Values in parentheses are a 95% confidence interval (C.I.). ^b Less than 50% blocking at 10 µM. All receptors are of rat (r) or human (h) origin, except α1β1δε, which is of mouse (m) origin. ND, not determined” at rα6/α3β2β3 nAChR (at 10 µM); “^a Values in parentheses are a 95% confidence interval (C.I.). ^b Less than 50% blocking at 10 µM. All receptors are of rat (r) or human (h) origin, except α1β1δε, which is of mouse (m) origin. ND, not determined” at rα4β2 nAChR (at 10 µM); “^a Values in parentheses are a 95% confidence interval (C.I.). ^b Less than 50% blocking at 10 µM. All receptors are of rat (r) or human (h) origin, except α1β1δε, which is of mouse (m) origin. ND, not determined” at rα3β4 nAChR (at 10 µM); “^a Values in parentheses are a 95% confidence interval (C.I.). ^b Less than 50% blocking at 10 µM. All receptors are of rat (r) or human (h) origin, except α1β1δε, which is of mouse (m) origin. ND, not determined” at hα9α10 nAChR (at 10 µM); “^a Values in parentheses are a 95% confidence interval (C.I.). ^b Less than 50% blocking at 10 µM. All receptors are of rat (r) or human (h) origin, except α1β1δε, which is of mouse (m) origin. ND, not determined” on rα9α10 nAChR (at 10 µM). Moreover, the IC50 is more than 10 µM on rα6/α3β2β3 nAChR; more than 10 µM against rα4β2 nAChR; 0.0557 µM against rα3β2 nAChR; more than 10 µM on rα3β4 nAChR; 0.0907 µM against rα6/α3β4 nAChR; more than 10 µM against hα9α10 nAChR. Besides, the IC50 against rα9α10 nAChR is more than 10 µM.
